The values that follow come from publication PMC8860572 (Nucleic Acids Research, 2022).

What is called ΔTm is the change in melting temperature against a reference sample. In general, IC50 refers to the concentration needed to halve the response being measured. Low values mean inhibition by little substance, high ones a need for much substance.

Entries after “also recorded” stand apart in the source; their conditions may differ. Like-named read-outs stand apart in the source and are kept apart here.

In assay [1] the target is SARS-CoV-2 nsp14–nsp10 complex (nuclease activity) (Severe acute respiratory syndrome coronavirus 2, UniProt P0DTD1). The experiment in a line: biochemical. The settings on record: for inhibition of substrate digestion in gel-based assay: 100 nM nsp14–nsp10, compound up to 100 μM; for IC50 / IC50 value: 100 nM nsp14–nsp10, 10 nM 20-mer ssRNA, 37°C 45 min, approximate/preliminary.

In another assay the target is nsp14–nsp10 (Severe acute respiratory syndrome coronavirus 2, UniProt P0DTD1). The class given is binding, SARS-CoV-2. The settings on record: for ΔTm: 1 µM nsp14-10; for effect on thermal stability / aggregation of nsp14–nsp10 (words): 3.1-100 µM compound.
Assay [2] deals with nsp14–nsp10 co-incubated with nsp8 (Severe acute respiratory syndrome coronavirus 2, UniProt P0DTD1). Nature of the assay: gel-based nuclease inhibition assay with nsp8 stimulation. Format: biochemical, SARS-CoV-2. The settings on record: 100 nM nsp14-nsp10 and 300 nM nsp8, compound 3-100 μM.
Assay [3] concerns the target guanine N7 methyl transferase (MTase) activity of nsp14–nsp10 (Severe acute respiratory syndrome coronavirus 2, UniProt P0DTD1). The experiment in a line: HTRF methyltransferase assay. Format: biochemical, SARS-CoV-2. The settings on record: 2.5, 5 and 10 μM compound; 10 nM nsp14-nsp10, 5 μM SAM, 0.14 mM GP3G. A general note: Time-resolved FRET reads energy transfer from a long-lived donor to a nearby acceptor.

Assay [4] deals with SARS-CoV-2 nsp14–nsp10 RNase activity (Severe acute respiratory syndrome coronavirus 2, UniProt P0DTD1). Format: biochemical.
The next assay deals with SARS-CoV-2. The settings on record: cited from earlier work.
Where [5] appears, read: Supplementary Table 2, in vitro inhibition of nsp14-nsp10 nuclease activity, result in words.
[6] abbreviates: 125 nM (ions) or 250 nM (chelators) nsp14-nsp10, ions 0.05-10 mM, chelators 0.03-1 mM.

Take `COc1ccc2c3c(cccc13)C(=O)N(O)C2=O` [A-1]: in assay [1], the “inhibition of substrate digestion in gel-based assay” value was “qualitatively complete inhibition of substrate digestion”. The ΔTm at nsp14–nsp10 (3.1 µM compound) turned out to be 0.02 °C; on nsp14–nsp10 (6.3 µM compound), 0.31 °C; at nsp14–nsp10 (12.5 µM compound), 0.25 °C; at nsp14–nsp10 (25 µM compound) it was 0.17 °C; at nsp14–nsp10 (50 µM compound), 0.29 °C; at nsp14–nsp10 (100 µM compound) it was 0.60 °C.

`COc1cc2c3c(cccc3c1)C(=O)N(O)C2=O` [A-2] registered an IC50 in assay [1] of 20.7 ± 0.5 µM. The “inhibition of substrate digestion in gel-based assay” value in assay [1] is recorded as “qualitatively complete inhibition of substrate digestion”. In addition, in assay [1] (setting [5]), the Level of inhibition result is recorded as “Yes”. Moreover, the “inhibition of nuclease activity in presence of nsp8” value (“inhibition of nuclease activity” for short) in assay [2] is “inhibition was still observed, albeit at higher inhibitor concentrations”. Further, the ΔTm at nsp14–nsp10 (3.1 µM compound) was found to be 0.01 °C; at nsp14–nsp10 (6.3 µM compound) it was 0.26 °C; at nsp14–nsp10 (12.5 µM compound) it was 0.22 °C; on nsp14–nsp10 (25 µM compound) it was 0.21 °C; on nsp14–nsp10 (50 µM compound) it was 0.36 °C. For the same molecule, the “MTase inhibition” value in assay [3] is “demonstrated MTase inhibition activity”.

Turning to `O=c1[nH]c2ccccc2c(=O)n1O` [A-3], the ΔTm was -0.10 °C at nsp14–nsp10 (3.1 µM compound); 0.13 °C on nsp14–nsp10 (6.3 µM compound); 0.31 °C on nsp14–nsp10 (12.5 µM compound); 1.33 °C at nsp14–nsp10 (25 µM compound); 0.36 °C at nsp14–nsp10 (50 µM compound).

For the molecule `O=c1c2ccccc2n(Cc2ccccc2)c(=O)n1O` [A-4], the IC50 in assay [1] is 94.1 ± 27 µM. Further, in assay [1] (setting [5]), the Level of inhibition result is reported as “Yes”. The ΔTm on nsp14–nsp10 (3.1 µM compound) is -0.06 °C; on nsp14–nsp10 (6.3 µM compound), 0.11 °C; on nsp14–nsp10 (12.5 µM compound), 0.27 °C; at nsp14–nsp10 (25 µM compound) it was -1.33 °C; on nsp14–nsp10 (50 µM compound) it was 0.35 °C; on nsp14–nsp10 (100 µM compound) it was 0.62 °C.

`O=c1c2ccccc2[nH]c(=S)n1O` [A-5, 3-Hydroxy-2-thioxo-2,3-dihydroquinazolin-4-one]: in assay [1], the IC50 value result is reported as “incomplete inhibition”. The ΔTm on nsp14–nsp10 (3.1 µM compound) was found to be 0.00 °C; on nsp14–nsp10 (6.3 µM compound) it was 0.24 °C; at nsp14–nsp10 (12.5 µM compound), 0.19 °C; on nsp14–nsp10 (25 µM compound), 0.00 °C; at nsp14–nsp10 (50 µM compound), 0.38 °C; on nsp14–nsp10 (100 µM compound) it was 0.61 °C.

For `O=C(O)C1=CC(=C(c2ccc(O)c(C(=O)O)c2)c2ccc(O)c(C(=O)O)c2)C=CC1=O` [ATA, Aurintricarboxylic acid, reference compound], the Level of inhibition result in assay [1] (setting [5]) is given as “Yes”. The ΔTm was 0.33 °C on nsp14–nsp10 (3.1 µM compound), 0.27 °C at nsp14–nsp10 (6.3 µM compound), 0.85 °C on nsp14–nsp10 (12.5 µM compound) and 3.08 °C at nsp14–nsp10 (25 µM compound). In addition, the “effect on thermal stability / aggregation of nsp14–nsp10 (words)” value at nsp14–nsp10 is reported as “destabilizing effect on thermal stability of nsp14–nsp10”; on nsp14–nsp10 (listed as aurintricarboxylic acid), “appears to aggregate the protein at high concentration”.

`O=C(O)c1nc(-c2ccccc2)nc(O)c1O` [B-1, 5,6-Dihydroxyl-2-phenylpyrimidine-4-carboxylic acid] gave an IC50 in assay [1] of 32.2 ± 4.5 µM. Also, the Level of inhibition entry in assay [1] (setting [5]) is listed as “Yes”. Further, in assay [2], the “inhibition of nuclease activity” value is on record as “inhibition was still observed, albeit at higher inhibitor concentrations”. Further, the ΔTm on nsp14–nsp10 (3.1 µM compound) is -0.15 °C; at nsp14–nsp10 (6.3 µM compound) it was 0.02 °C; on nsp14–nsp10 (12.5 µM compound) it was 0.08 °C; on nsp14–nsp10 (25 µM compound), -0.57 °C; at nsp14–nsp10 (50 µM compound), 0.23 °C; at nsp14–nsp10 (100 µM compound), 0.46 °C. For the same molecule, the “MTase inhibition” value in assay [3] is given as “demonstrated MTase inhibition activity; also recorded: most potent compound”.

Take `O=C(O)CN(CCOCCOCCN(CC(=O)O)CC(=O)O)CC(=O)O` [EGTA, ethylene glycol-bis (b-aminoethyl ether)-N,N,N’,N’-tetraacetic acid, reference compound]: the “effect on RNase activity of nsp14–nsp10” value in assay [4] (setting [6]) is “inhibitory”.

Take `Cc1ccc(-n2sc3ccccc3c2=O)cc1` [PBIT, reference compound]: the IC50 value entry in assay [1] is recorded as “IC50 not reached under assay conditions”.

As to `CCN(CC)C(=S)SSC(=S)N(CC)CC` [disulfiram, reference compound], the ΔTm at nsp14–nsp10 (3.1 µM compound) is -0.53 °C; at nsp14–nsp10 (6.3 µM compound) it was -0.58 °C; on nsp14–nsp10 (12.5 µM compound), -0.13 °C; on nsp14–nsp10 (25 µM compound), -0.42 °C; at nsp14–nsp10 (50 µM compound), -0.40 °C; at nsp14–nsp10 (100 µM compound) it was 0.33 °C.

In the case of `O=c1c2ccccc2[se]n1-c1ccccc1` [ebselen, reference compound], the Level of inhibition entry in assay [1] is given as “Yes”. For the same molecule, in assay [2], the “inhibition of nuclease activity” value is on record as “inhibition was still observed, albeit at higher inhibitor concentrations”. Further, the “MTase inhibition” value in assay [3] is on record as “demonstrated MTase inhibition activity”. Also, the “antiviral activity in cell-based assays” value with SARS-CoV-2 is “exhibited antiviral activity in cell-based assays”.

As for `[Mg]` [magnesium], the “effect on RNase activity of nsp14–nsp10” value in assay [4] (setting [6]) is “promoted the RNase activity”.

In the case of `[Mn+2]` [manganese], the “effect on RNase activity of nsp14–nsp10” value in assay [4] is given as “promoted the RNase activity”.

Consider `c1cnc2c(c1)ccc1cccnc12` [o-phenanthroline, reference compound], for which, in assay [4] (setting [6]), the “effect on RNase activity of nsp14–nsp10” value was “inhibitory”.

`Cc1nnc(C(=O)NC(C)(C)c2nc(C(=O)NCc3ccc(F)cc3)c(O)c(=O)n2C)o1` [raltegravir, reference compound] returned an IC50 in assay [1] of 24.4 ± 2.7 µM. For the same molecule, in the assay with SARS-CoV-2, the “antiviral activity in cell-based assays” value is “did not”.

As for `CN(C)C(=S)SSC(=S)N(C)C` [thiram, reference compound], in assay [1], the IC50 was 48.2 ± 1.8 µM. For the same molecule, the Level of inhibition entry in assay [1] (setting [5]) is “Yes”. Further, the ΔTm is -0.53 °C on nsp14–nsp10 (3.1 µM compound); -0.46 °C at nsp14–nsp10 (6.3 µM compound); -0.22 °C on nsp14–nsp10 (12.5 µM compound); -0.42 °C at nsp14–nsp10 (25 µM compound); -0.43 °C on nsp14–nsp10 (50 µM compound); -0.21 °C at nsp14–nsp10 (100 µM compound).

Turning to `[Cl-].[Cl-].[Zn+2]` [zinc], in assay [4], the “effect on RNase activity of nsp14–nsp10” value was “inhibitory”.
